Experiment [1] addresses T1, Serine/threonine-protein kinase STK11 (Homo sapiens) (UniProt Q15831).
T1 sequence (whole entry): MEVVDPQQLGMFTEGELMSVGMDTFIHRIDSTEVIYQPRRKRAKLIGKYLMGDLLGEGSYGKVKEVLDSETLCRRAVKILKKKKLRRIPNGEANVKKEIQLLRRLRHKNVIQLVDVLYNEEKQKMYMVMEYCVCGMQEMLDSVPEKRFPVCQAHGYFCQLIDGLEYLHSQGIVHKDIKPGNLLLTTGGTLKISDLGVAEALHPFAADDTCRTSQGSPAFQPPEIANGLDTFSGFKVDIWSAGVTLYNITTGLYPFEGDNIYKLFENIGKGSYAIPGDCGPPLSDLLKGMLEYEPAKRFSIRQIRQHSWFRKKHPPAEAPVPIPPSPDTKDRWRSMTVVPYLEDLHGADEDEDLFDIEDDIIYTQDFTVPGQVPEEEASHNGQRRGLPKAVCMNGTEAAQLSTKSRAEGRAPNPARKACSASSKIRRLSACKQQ
As to the kind of experiment: Inhibition of LKB1 in human PC3 cell lysates at 30 uM using desthiobiotin-tagged ATP probe AX9989 followed by trypsinization by LC/MS analysis. The note with it: PC-3.

The target of experiment [2] is T2, Serine/threonine-protein kinase TAO2 (Homo sapiens) (UniProt Q9UL54).
T2 sequence (whole entry): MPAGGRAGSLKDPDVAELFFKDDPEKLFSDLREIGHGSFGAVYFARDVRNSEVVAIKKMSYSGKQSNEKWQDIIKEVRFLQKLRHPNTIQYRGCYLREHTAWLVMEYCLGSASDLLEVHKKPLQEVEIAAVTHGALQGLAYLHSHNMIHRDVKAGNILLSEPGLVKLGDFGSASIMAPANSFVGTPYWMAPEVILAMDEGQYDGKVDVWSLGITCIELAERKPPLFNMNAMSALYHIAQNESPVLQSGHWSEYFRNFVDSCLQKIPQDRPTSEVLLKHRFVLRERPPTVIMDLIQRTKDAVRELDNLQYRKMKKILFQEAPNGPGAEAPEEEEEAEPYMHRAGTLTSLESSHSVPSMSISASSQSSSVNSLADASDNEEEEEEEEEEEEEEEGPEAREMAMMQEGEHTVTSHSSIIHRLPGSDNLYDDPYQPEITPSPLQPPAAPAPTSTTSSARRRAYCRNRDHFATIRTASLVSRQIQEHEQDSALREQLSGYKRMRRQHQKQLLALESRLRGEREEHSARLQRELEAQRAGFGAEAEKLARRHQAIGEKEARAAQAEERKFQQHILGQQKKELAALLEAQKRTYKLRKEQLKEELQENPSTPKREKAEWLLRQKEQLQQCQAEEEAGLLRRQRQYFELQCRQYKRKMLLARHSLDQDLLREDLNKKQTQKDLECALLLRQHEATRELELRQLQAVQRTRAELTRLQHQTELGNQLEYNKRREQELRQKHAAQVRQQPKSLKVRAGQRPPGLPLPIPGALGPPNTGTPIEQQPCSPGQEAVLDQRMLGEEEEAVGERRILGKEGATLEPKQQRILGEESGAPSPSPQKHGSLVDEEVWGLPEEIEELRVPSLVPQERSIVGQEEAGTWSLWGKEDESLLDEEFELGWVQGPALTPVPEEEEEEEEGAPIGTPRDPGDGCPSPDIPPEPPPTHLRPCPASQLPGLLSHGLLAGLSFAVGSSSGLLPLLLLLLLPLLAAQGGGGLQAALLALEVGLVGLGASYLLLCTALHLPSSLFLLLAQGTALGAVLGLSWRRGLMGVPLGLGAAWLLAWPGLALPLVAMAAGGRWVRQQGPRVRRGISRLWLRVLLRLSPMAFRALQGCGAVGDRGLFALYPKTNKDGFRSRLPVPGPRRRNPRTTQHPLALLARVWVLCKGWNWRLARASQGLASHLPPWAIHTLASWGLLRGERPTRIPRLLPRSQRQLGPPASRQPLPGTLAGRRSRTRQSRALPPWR
As to the kind of experiment: Inhibition of TAO2 in human PC3 cell lysates at 30 uM using desthiobiotin-tagged ATP probe AX9989 followed by trypsinization by LC/MS analysis. Conditions: PC-3.

For experiment [3], the target named is Cyclin-dependent kinase 16 (Homo sapiens) (UniProt Q00536). As to the kind of experiment: Inhibition of PCTAIRE1 in human PC3 cell lysates at 30 uM using desthiobiotin-tagged ATP probe AX9989 followed by trypsinization by LC/MS analysis. The note with it: PC-3.
Experiment [4] addresses eIF-2-alpha kinase GCN2 (Homo sapiens) (UniProt Q9P2K8). As to the kind of experiment: Inhibition of GCN2 in human PC3 cell lysates at 30 uM using desthiobiotin-tagged ATP probe AX9989 followed by trypsinization by LC/MS analysis. Conditions: PC-3.
The target of experiment [5] is T3, Phosphatidylinositol 5-phosphate 4-kinase type-2 gamma (Homo sapiens) (UniProt Q8TBX8).
T3 sequence (whole entry): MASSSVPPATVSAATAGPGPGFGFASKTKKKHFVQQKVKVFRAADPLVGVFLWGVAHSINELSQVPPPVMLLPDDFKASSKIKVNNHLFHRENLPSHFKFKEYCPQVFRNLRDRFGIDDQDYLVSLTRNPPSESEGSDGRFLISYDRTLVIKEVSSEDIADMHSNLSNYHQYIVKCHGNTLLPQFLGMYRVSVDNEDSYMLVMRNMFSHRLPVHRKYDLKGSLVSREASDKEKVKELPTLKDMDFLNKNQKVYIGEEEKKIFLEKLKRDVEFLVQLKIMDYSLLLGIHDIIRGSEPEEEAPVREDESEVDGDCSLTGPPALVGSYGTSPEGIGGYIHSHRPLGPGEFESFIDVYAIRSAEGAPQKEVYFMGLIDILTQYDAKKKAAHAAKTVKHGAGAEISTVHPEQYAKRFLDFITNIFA
As to the kind of experiment: Inhibition of PIP4K2C in human PC3 cell lysates at 30 uM using desthiobiotin-tagged ATP probe AX9989 followed by trypsinization by LC/MS analysis. The note with it: PC-3.

Experiment [6] addresses Cyclin-dependent kinase 10 (Homo sapiens) (UniProt Q15131). As to the kind of experiment: Inhibition of CDK10 in human PC3 cell lysates at 30 uM using desthiobiotin-tagged ATP probe AX9989 followed by trypsinization by LC/MS analysis. The note with it: PC-3.
For experiment [7], the target named is Microtubule-associated serine/threonine-protein kinase 3 (Homo sapiens, UniProt O60307). As to the kind of experiment: Inhibition of MAST3 in human PC3 cell lysates at 30 uM using desthiobiotin-tagged ATP probe AX9989 followed by trypsinization by LC/MS analysis. Conditions: PC-3.
Experiment [8] has as its target Casein kinase II subunit alpha' (Homo sapiens) (UniProt P19784). As to the kind of experiment: Inhibition of CK2alpha2 in human PC3 cell lysates at 30 uM using desthiobiotin-tagged ATP probe AX9989 followed by trypsinization by LC/MS analysis. The note with it: PC-3.
Experiment [9] has as its target Mitogen-activated protein kinase 9 (Homo sapiens, UniProt P45984). As to the kind of experiment: Inhibition of JNK2 in human Jurkat cell lysates using desthiobiotin-tagged ATP probe AX9989 followed by trypsinization by LC/MS analysis.

pIC50: −log10 of the molar value. Where only a bound is given, the exact number is not on record here.

Chain of Microtubule-associated serine/threonine-protein kinase 3 (O60307 whole entry): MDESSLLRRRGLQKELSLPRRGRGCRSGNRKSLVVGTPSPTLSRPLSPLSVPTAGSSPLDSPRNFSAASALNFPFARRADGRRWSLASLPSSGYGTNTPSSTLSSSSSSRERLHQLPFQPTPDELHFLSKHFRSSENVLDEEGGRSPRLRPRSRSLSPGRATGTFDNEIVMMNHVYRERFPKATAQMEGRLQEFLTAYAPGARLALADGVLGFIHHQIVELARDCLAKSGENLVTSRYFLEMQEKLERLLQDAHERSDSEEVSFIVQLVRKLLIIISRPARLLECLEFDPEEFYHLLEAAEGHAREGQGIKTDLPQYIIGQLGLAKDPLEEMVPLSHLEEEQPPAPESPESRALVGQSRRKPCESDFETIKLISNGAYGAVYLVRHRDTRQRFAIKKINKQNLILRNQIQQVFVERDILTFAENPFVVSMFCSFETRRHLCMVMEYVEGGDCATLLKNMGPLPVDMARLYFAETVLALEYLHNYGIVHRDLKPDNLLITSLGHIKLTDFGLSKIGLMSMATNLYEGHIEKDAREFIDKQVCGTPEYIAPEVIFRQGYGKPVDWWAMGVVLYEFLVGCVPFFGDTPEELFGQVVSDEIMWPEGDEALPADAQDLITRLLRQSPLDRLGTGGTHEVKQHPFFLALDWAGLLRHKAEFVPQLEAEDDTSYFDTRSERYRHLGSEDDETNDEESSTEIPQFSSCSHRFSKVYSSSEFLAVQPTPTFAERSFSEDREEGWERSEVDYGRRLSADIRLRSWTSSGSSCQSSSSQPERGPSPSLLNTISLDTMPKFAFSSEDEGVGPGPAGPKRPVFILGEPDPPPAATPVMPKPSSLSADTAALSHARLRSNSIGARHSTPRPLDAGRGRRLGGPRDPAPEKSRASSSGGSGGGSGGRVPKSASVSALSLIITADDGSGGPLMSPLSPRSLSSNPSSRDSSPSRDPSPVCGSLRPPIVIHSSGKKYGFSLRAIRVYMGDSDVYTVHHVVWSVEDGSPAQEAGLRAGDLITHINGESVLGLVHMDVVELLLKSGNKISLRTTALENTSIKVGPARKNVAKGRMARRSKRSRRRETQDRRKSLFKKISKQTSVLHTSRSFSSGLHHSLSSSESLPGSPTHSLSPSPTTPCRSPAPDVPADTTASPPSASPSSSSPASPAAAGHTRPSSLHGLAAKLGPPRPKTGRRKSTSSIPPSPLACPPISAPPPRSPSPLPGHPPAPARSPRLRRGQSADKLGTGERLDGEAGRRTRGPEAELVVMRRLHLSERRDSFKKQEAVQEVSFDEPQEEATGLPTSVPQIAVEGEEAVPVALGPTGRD
Chain of eIF-2-alpha kinase GCN2 (Homo sapiens) (Q9P2K8 whole entry): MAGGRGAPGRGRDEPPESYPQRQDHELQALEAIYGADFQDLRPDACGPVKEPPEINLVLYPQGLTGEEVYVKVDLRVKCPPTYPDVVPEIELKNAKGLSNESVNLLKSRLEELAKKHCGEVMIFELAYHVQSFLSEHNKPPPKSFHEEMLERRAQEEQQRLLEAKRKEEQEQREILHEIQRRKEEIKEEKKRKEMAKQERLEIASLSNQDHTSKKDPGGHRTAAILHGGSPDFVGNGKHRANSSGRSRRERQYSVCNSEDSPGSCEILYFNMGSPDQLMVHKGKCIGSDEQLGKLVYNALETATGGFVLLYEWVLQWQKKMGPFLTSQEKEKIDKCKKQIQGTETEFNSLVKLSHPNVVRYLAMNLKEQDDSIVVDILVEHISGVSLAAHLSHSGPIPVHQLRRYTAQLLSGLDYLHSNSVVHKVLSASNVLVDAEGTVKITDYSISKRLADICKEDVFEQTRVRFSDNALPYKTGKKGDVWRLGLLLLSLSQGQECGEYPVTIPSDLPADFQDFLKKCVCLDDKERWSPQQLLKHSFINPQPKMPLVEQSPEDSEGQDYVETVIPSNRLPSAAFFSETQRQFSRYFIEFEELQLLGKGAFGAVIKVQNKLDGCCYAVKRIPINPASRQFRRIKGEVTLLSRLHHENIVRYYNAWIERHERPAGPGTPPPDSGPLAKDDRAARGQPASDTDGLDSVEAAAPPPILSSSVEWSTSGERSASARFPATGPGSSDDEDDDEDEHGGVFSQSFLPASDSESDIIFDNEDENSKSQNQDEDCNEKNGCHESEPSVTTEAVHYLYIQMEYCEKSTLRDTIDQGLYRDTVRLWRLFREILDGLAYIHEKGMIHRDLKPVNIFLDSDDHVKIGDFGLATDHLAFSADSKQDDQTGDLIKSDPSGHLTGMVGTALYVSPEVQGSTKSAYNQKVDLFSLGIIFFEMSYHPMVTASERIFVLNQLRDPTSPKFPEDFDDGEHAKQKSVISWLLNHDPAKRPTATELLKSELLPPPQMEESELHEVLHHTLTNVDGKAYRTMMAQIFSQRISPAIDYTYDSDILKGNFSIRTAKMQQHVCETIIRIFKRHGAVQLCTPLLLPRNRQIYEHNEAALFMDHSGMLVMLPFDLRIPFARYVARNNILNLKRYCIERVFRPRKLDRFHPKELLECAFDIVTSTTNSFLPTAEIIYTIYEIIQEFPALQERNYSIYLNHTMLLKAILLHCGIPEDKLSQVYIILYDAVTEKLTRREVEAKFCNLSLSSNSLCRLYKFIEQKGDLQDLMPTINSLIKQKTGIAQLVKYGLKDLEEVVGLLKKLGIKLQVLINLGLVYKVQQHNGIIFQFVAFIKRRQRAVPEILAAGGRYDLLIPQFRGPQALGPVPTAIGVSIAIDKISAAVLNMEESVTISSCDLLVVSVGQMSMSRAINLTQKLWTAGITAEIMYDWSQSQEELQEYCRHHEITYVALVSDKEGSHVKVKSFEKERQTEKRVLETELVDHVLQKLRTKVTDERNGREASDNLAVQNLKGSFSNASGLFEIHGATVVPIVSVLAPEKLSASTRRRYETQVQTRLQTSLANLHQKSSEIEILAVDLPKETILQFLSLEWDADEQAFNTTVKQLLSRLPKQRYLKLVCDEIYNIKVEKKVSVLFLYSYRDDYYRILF
Chain of Cyclin-dependent kinase 10 (Homo sapiens) (Q15131 whole entry): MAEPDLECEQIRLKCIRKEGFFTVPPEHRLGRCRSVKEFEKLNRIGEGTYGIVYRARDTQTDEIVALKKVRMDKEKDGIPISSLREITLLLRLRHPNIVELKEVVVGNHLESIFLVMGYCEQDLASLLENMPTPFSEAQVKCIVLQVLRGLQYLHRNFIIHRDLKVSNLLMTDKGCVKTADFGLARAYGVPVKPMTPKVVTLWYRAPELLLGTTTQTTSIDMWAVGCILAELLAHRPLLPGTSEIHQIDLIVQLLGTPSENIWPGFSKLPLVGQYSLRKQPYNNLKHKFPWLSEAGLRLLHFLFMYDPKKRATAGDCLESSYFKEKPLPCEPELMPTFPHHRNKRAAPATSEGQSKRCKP
Chain of Mitogen-activated protein kinase 9 (P45984 whole entry): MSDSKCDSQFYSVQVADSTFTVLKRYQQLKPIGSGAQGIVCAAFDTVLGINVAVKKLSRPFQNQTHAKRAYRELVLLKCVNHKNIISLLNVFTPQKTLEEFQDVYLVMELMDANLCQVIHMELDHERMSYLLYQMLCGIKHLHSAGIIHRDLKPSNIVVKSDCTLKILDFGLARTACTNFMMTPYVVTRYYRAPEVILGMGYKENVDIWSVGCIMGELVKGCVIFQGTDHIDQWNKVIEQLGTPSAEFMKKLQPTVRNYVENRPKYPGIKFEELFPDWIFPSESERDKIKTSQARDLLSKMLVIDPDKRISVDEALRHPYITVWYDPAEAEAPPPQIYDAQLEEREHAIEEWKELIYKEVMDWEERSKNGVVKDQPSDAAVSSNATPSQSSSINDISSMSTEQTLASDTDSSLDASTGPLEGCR
Chain of Cyclin-dependent kinase 16 (Homo sapiens) (Q00536 whole entry): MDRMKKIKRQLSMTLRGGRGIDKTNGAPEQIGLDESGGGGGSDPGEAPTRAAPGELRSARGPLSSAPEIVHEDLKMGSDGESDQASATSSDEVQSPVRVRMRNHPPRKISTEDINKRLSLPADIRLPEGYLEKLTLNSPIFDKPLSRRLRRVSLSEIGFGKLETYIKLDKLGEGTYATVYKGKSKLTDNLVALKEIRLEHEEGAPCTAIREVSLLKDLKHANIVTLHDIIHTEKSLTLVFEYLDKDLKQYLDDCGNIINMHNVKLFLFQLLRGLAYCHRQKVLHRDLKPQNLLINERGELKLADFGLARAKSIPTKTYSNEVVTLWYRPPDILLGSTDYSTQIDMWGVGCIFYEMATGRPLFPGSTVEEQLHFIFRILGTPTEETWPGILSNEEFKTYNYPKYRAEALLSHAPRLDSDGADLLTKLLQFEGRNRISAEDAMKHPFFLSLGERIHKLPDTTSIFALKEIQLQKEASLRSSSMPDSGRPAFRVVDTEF
Chain of Casein kinase II subunit alpha' (Homo sapiens) (P19784 whole entry, looked up): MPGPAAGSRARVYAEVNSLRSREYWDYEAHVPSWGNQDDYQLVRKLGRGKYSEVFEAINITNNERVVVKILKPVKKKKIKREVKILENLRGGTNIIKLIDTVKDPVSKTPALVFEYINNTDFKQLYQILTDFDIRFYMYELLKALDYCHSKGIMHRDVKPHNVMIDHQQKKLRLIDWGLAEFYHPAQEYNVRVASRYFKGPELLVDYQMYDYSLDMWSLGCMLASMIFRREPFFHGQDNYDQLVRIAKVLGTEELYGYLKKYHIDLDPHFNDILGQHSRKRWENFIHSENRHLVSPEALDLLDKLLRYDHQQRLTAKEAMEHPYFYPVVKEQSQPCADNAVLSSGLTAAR

Take `c1ccc(CNc2nc3ccccc3n3ccnc23)cc1`: the inhibition in [1], in experiment [2], in experiment [3], in experiment [4], in [5] and in [6] was less than 35% in each case. Moreover, the inhibition in [7] and in experiment [8] was less than 35% throughout.
Regarding `c1ccc(CCNc2nc3ccccc3n3ccnc23)cc1`, the inhibition (usually the share of the control response that was lost under treatment) in experiment [1] was less than 35%; in experiment [2], less than 35%; in [3] it was less than 35%; in experiment [4], less than 35%; in experiment [5] it was 52.6%; in experiment [6] it was 35.7%. Also, the inhibition in experiment [7] and in [8] was less than 35% in each case.
In the case of `O=C(N[C@H](CO)c1ccccc1)c1ccc2nc(N[C@H]3CC[C@H](O)CC3)c3nccn3c2c1`, in [9], the pIC50 (as a rule, the negative decadic logarithm of the IC50, by convention in mol/L) is 6.87.
In the case of `c1ccc2c(c1)nc(NC1CCCCC1)c1nccn12`, the inhibition is less than 35% in experiment [1]; less than 35% in experiment [2]; less than 35% in experiment [3]; less than 35% in experiment [4]; less than 35% in [5]; 37.2% in [6]. The inhibition in [7] and in [8] was less than 35% each time.
Take `CC[C@@H](NC(=O)c1ccc2nc(N[C@H]3CC[C@H](O)CC3)c3nccn3c2c1)c1ccccc1`: the negative-log IC50 (pIC50) in experiment [9] is 7.00.
Consider `O[C@H]1CC[C@H](Nc2nc3ccccc3n3ccnc23)CC1`, for which the inhibition worked out at 45.6% in experiment [1]; 37% in experiment [2]; 38.9% in experiment [3]; 36.9% in [4]; 50.9% in [5]; 79.8% in [6]. The inhibition in [7] is less than 35%; in [8], 49.6%.
Take `O=C(NC1(Cc2ccc(F)cc2)CC1)c1ccc2nc(N[C@H]3CC[C@H](O)CC3)c3nccn3c2c1`: the pIC50 in experiment [9] is 6.92.

Values taken from ChEMBL document CHEMBL2417377, “Hit-to-lead optimization and kinase selectivity of imidazo[1,2-a]quinoxalin-4-amine derived JNK1 inhibitors” (Bioorg Med Chem Lett, 2013).
